Laboratory results from PubChem BioAssay (NCI).
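A five-concentration, 48-hour dose response in 96-well plates underlies each endpoint, interpolated linearly between surrounding concentrations. The concentration for full growth arrest is given as TGI.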

What was measured:
Experiment in all cases: DTP human tumour cell line panel, 48 h
KM20L2 colon = system: KM20L2 colon
HOP-18 NSCLC = system: HOP-18 NSCLC
DLD-1 colon = system: DLD-1 colon
SNB-78 CNS = system: SNB-78 CNS
DMS 114 small cell lung = system: DMS 114 small cell lung
LXFL 529 NSCLC = system: LXFL 529 NSCLC
DMS 273 small cell lung = system: DMS 273 small cell lung
XF 498 CNS = system: XF 498 CNS

SMILES	TGI (KM20L2 colon)	TGI (HOP-18 NSCLC)	TGI (DLD-1 colon)	TGI (SNB-78 CNS)	TGI (DMS 114 small cell lung)	TGI (LXFL 529 NSCLC)	TGI (DMS 273 small cell lung)	TGI (XF 498 CNS)
C[n+]1c2ccccc2c(NCC(=O)O)c2ccccc21	> 100 µM	> 100 µM	> 100 µM	> 100 µM	> 100 µM	> 100 µM	> 100 µM	
Cc1cc(=O)[nH]c(NNC(C#N)c2cccc(O)c2)n1 (stereo unspecified)	> 100 µM	> 100 µM	> 100 µM	> 100 µM	> 100 µM	> 100 µM	> 100 µM	
S=C1NCCN1	> 100 µM		> 100 µM	> 100 µM	> 100 µM	> 100 µM	> 100 µM	> 100 µM
O=c1cc(-c2cccc(O)c2)[nH]c2cc3c(cc12)OCO3		> 100 µM	> 100 µM	54.2 µM	5.68 µM	> 100 µM	4.23 µM	> 100 µM
COc1cc2c(c(OC)c1O)-c1ccc(SC)c(=O)cc1C(NC(C)=O)CC2 (stereo unspecified)	0.0246 µM	> 100 µM	> 100 µM	> 100 µM	< 0.0143 µM	> 100 µM	> 100 µM	
Cc1c2n(c(=O)[nH]c1=O)C1OC(CO)C(O2)C1N=[N+]=[N-] (stereo unspecified)	> 100 µM		> 100 µM	> 100 µM	> 100 µM	> 100 µM	> 100 µM	
